Reference: US4914204A, “4-Pentafluorophenoxypiperidines” (priority 1988, dated 1990)
Where a name gives a salt, the structure may show the parent alone. Read-outs that look alike come from different tables or passages of the source.

Legend:
mice [1] = experiment: tetrabenazine (TBZ) induced ptosis assay (antidepressant activity); format: in vivo, mice (male, Charles River, CD-1)
Protocol: In the tetrabenazine induced ptosis assay, male mice (Charles River, CD-1), weighing 20 to 39 g, are used in test groups of five animals. Test compounds are dissolved, or suspended with 1 drop of Tween-80, in distilled water and administered to the animals in volumes of 10 cc per kg of body weight. Tetrabenazine methanesulfonate (76.78% as the free base) is dissolved in distilled water and the concentration of the solution is adjusted so that the dose, administered intraperitoneally (i.p.) to the animals, is 40 mg of tetrabenazine base per kg of animal body weight.
The test compound is administered intraperitoneally (i.p.) or perorally (p.o.) to the subject animals, and the tetrabenazine solution is administered 30 minutes or 60 minutes, respectively, thereafter. Tetrabenazine solution and the solvent used to dissolve or suspend the test compounds are administered by the same route and at the same intervals as the test compounds to a control group.
The subject animals are placed in individual plastic containers (101/2"×8"×6") thirty (i.p.) and sixty minutes (p.o.) after administration of the tetrabenazine solution, and one minute thereafter, the animals are scored for ptosis on the following scale:
The total score for each group of 5 animals will therefore vary from 0 to 20; these scores are used as the indications of the activity of the test compound.
The vehicle-control group score is used as a determination of the validity of each test.
For calculation of the ED50 value of a test compound; i.e., the calculated dose at which the test compound effects a 50% inhibition of tetrabenazine-induced ptosis, four or five doses are administered, and only vehicle-control scores of 17 to 20 are acceptable. A linear-regression analysis is used to estimate ED50 values and 95% confidence limits.

rats = experiment: L-5-hydroxytryptophan (5-HTP) potentiation assay (antidepressant activity); format: in vivo, male Wistar rats
Protocol: Antidepressant activity is determined by the L-5-hydroxytryptophan potentiation assay in rats described in Brit.
In the L-5-hydroxytryptophan potentiation assay groups of six male Wistar rats (150-200 grams each) are used. Pargyline hydrochloride is prepared and administered four hours before testing by subcutaneous injection at 75 mg/kg in 1% saline and a dosage volume of 1.0 ml/kg. Thirty minutes before testing, drugs are prepared and dosed using distilled water and, if insoluble, a suitable surfactant is added. Control groups receive vehicle. Drugs are routinely administered intraperitoneally at a dosage volume of 10 ml/kg. L-5-hydroxytryptophan (5-HTP) is prepared at 1.0 mg/kg in distilled water and is administered intraperioneally in volumes proportional to 10 ml/kg.
Potentiation is expressed as normalized percent potentiation relative to vehicle control. ED50 values (the calculated dose at which the test compound effects a 50% inhibition of continuous forelimb clonus) and 95% confidence limits are determined by linear analysis.

[2] = system: spontaneous hypertensive rat; experiment: antihypertensive activity, indirect tail cuff method; format: in vivo; conditions: 50 mg/kg p.o.; measured on third day
Protocol: The compounds of this invention are also useful as antihypertensive agents due to their ability to depress blood pressure in mammals. Antihypertensive activity is measured in the spontaneous hypertensive rat by the indirect tail cuff method described in "Methods in Pharmacology", A. Schwartz, Ed., Vol. I, Appleton-Century Crofts, New York, N.Y., 1971, p. 135. In this procedure a group of five animals is treated orally for three days with the test compound in relation to a control group of the same number. The drop in blood pressure is measured on the third day following administration. The antihypertensive activities of representative compounds, expressed as a decrease in mean arterial blood pressure (in mm Hg), are given in Table 3 along with the activity of a standard compound.

mice [3] = experiment: phenyl-p-benzoquinone writhing assay (analgesic activity); format: in vivo, mice (male, Charles River, CD-1); conditions: for % Inhibition of writhing: screening dose of 20 mg/kg, s.c.; for ED50: Mus musculus, sc, footnote 1 of Table 1, read-out: Analgesic Activity, ED50 (calculated dose effecting 50% inhibition of writhing)
Protocol: The procedure employed to determine analgetic utility is a modification of the phenyl-p-benzoquinone writhing assay in mice, a standard assay for analgesia [Proc. Soc. […] Pursuant to the modified procedure phenyl-p-benzoquinone (Eastman, 12.5 mg) is dissolved in 5 ml of 95% ethanol and the solution is diluted to a total volume of 100 ml with distilled water. The solution is administered to the subject mice intraperitoneally at a dose of 10 ml per kg of body weight. A characteristic "writhe" an inward rotation of one or more feet with twisting and turning of the trunk, drawing in of the abdominal wall, lordosis and arching of the back, is produced.
A total of 28 male mice (Charles River, CD-1), weighing 18 to 30 grams, are employed for a time response. The subject animals receive food and water ad libitum. Test compounds are dissolved in distilled water, or suspended in distilled water containing one drop of a suitable surfactant, such as Tween-80.
Four groups of five animals (20 animals) are given the test compound subcutaneously (s.c.) or orally (p.o.) at 15, 30, 45 and 60 minutes prior to administration of the phenyl-p-quinone. A control group (2 animals per group) receive an equal volume of the vehicle. After the administration of the phenyl-p-quinone, the mice are placed separately in one liter beakers, and after five minutes, are observed for ten minutes. The number of writhes for each animal is recorded. The following formula is used to compute the percent inhibition: [formula]
The time period with the greatest percent of inhibition is considered the peak time.

mice [4] = experiment: metrazol lethality assay (MTZ), anticonvulsant activity; format: in vivo, mice (male, Charles River, CD-1)
[5] = Mus musculus, ip; read-out: TBZ ED50
[6] = Rattus norvegicus, ip; read-out: 5-HTP ED50
[7] = Mus musculus, ip, read-out: TBZ ED50
[8] = Rattus norvegicus, ip, read-out: 5-HTP ED50

Structure (SMILES) | ED50 (mice [1]; [5]) | ED50 (rats; [6]) | % Inhibition of writhing (mice [3]) | further results
Fc1c(F)c(F)c(OC2(c3ccccc3)CCNCC2)c(F)c1F.O=C(O)/C=C\C(=O)O [4-(2,3,4,5,6-Pentafluorophenoxy)-4-phenylpiperidine maleate] | 1 mg/kg | 14.5 mg/kg |  | 
Fc1c(F)c(F)c(OC2(c3ccccc3)CCN(Cc3ccccc3)CC2)c(F)c1F [1-Benzyl-4-(2,3,4,5,6-pentafluorophenoxy)-4-phenyl piperidine] |  |  |  | SHR mm dec. in blood pressure (decrease in mean arterial blood pressure) [2]: 40 mm Hg
COc1ccc(C2(Oc3c(F)c(F)c(F)c(F)c3F)CCN(C)CC2)cc1.Cl [4-(4-Methoxyphenyl)-1-methyl-4-(2,3,4,5,6-pentafluorophenoxy) piperidine hydrochloride] |  |  | 53% | 
CN1CCC(Oc2c(F)c(F)c(F)c(F)c2F)(c2ccc(F)cc2)CC1.Cl [4-(4-Fluorophenyl)-1-methyl-4-(2,3,4,5,6-pentafluorophenoxy)p iperidine hydrochloride] |  |  | 49% | Percent inhibition of Metrazol lethality (mice [4]; 30 mg/kg i.p., footnote 2 of Table 2): 80%; ED50 (mice [1]; [7]): 5.4 mg/kg; ED50 (rats; [8]): 7 mg/kg
CN1CCC(Oc2c(F)c(F)c(F)c(F)c2F)(c2ccccc2)CC1.Cl [1-methyl-4-(2,3,4,5,6-pentafluorophenoxy)-4-phenylpiperidine hydrochloride] |  |  |  | ED50 (mice [1]; [7]): 1.3 mg/kg; ED50 (rats; [8]): 8.1 mg/kg
Cl.Fc1c(F)c(F)c(OC2CCNCC2)c(F)c1F [4-(2,3,4,5,6-Pentafluorophenoxy)piperidine hydrochloride] |  |  |  | ED50 (mice [3]): 20 mg/kg
CN(C)CCC=C1c2ccccc2CCc2ccccc21 [amitriptyline, reference compound] | 1.5 mg/kg | 7.1 mg/kg |  | 
N#CN1CCC(Oc2c(F)c(F)c(F)c(F)c2F)(c2ccccc2)CC1 [1-Cyano-4-(2,3,4,5,6-pentafluorophenoxy)-4-phenyl piperidine] |  |  | 52% | ED50 (mice [4]; Mus musculus, po): 55.2 mg/kg
Fc1c(F)c(F)c(OC2(c3ccc(Cl)cc3)CCNCC2)c(F)c1F.O=C(O)/C=C/C(=O)O [4-(4-Chlorophenyl)-4-(2,3,4,5,6-pentafluorophenoxy)piperidine fumarate] | 20 mg/kg | 37 mg/kg | 66% | 
Fc1ccccc1C1(Oc2c(F)c(F)c(F)c(F)c2F)CCNCC1.O=C(O)/C=C\C(=O)O [4-(2-Fluorophenyl)-4-(2,3,4,5,6-pentafluorophenoxy)piperidine maleate] | 6.4 mg/kg | < 20 mg/kg |  | 
N=C(N)NCCN1CCCCCCC1 [guanethidine, reference compound] |  |  |  | SHR mm dec. in blood pressure (decrease in mean arterial blood pressure) [2]: 20 mm Hg
CN1CCC(Oc2c(F)c(F)c(F)c(F)c2F)(c2ccc(Cl)cc2)CC1.O=C(O)/C=C/C(=O)O [4-(4-Chlorophenyl)-1-methyl-4-(2,3,4,5,6-pentafluorophenoxy)p iperidine fumarate] |  |  |  | ED50 (mice [1]; [7]): 38.9 mg/kg; ED50 (rats; [8]): 11.9 mg/kg
CN1CCC(Oc2c(F)c(F)c(F)c(F)c2F)CC1 [1-methyl-4-(2,3,4,5,6-pentafluorophenoxy)piperidine] | 4.7 mg/kg | 4.7 mg/kg |  | 
CP(C)(=O)CN1CCC(Oc2c(F)c(F)c(F)c(F)c2F)CC1 [1-[(Dimethylphosphinyl)methyl]-4-(2,3,4,5,6-pentafluorophenoxy)piperdine] |  | 9.1 mg/kg |  | 
CN1CCC(Oc2c(F)c(F)c(F)c(F)c2F)(c2ccccc2F)CC1.O=C(O)C(=O)O [4-(2-Fluorophenyl)-1-methyl-4-(2,3,4,5,6-pentafluorophenoxy) piperidine oxalate] |  |  |  | ED50 (mice [1]; [7]): 3.8 mg/kg
Cl.Fc1ccc(C2(Oc3c(F)c(F)c(F)c(F)c3F)CCNCC2)cc1 [4-(4-Fluorophenyl)-4-(2,3,4,5,6-pentafluorophenoxy)piperidine hydrochloride] | 4.8 mg/kg | < 10 mg/kg | 58% | 
Cc1ccc(C2(Oc3c(F)c(F)c(F)c(F)c3F)CCNCC2)cc1.O=C(O)/C=C\C(=O)O [4-(4-Methylphenyl)-4-(2,3,4,5,6-pentafluorophenoxy)piperidine maleate] | 8.3 mg/kg | 14.5 mg/kg | 56% | 
Cc1ccc(C2(Oc3c(F)c(F)c(F)c(F)c3F)CCN(C)CC2)cc1 [(4-(4-Methylphenyl)-1-methyl-4-(2,3,4,5,6-pentafluorophenoxy)piperidine hydrochloride] |  |  |  | ED50 (mice [1]; [7]): 7 mg/kg
COc1ccccc1N1CCN(CCCCN2CCC(Oc3c(F)c(F)c(F)c(F)c3F)CC2)CC1 [1-{4-[1-[4-(2-Methoxyphenyl)piperazin-1-yl]butyl]}-4-(2,3,4,5,6-pentafluorophenoxy)piperidine dioxalate] |  |  |  | ED50 (mice [3]): 19 mg/kg
Cl.Fc1ccc2c(CCCN3CCC(Oc4c(F)c(F)c(F)c(F)c4F)CC3)noc2c1 [1-[(6-Fluoro-1,2-benzisoxazol-3-yl)propyl]-4-(2,3,4,5,6-pentafluorophenoxy)piperidine hydrochloride] |  |  |  | SHR mm dec. in blood pressure (decrease in mean arterial blood pressure) [2]: 62 mm Hg
